Like-named read-outs stand apart in the source and are kept apart here.
Assays:
Sprague Dawley rats = experiment: 28-day repeat-dose subcutaneous toxicity and toxicokinetics in rats; assay type: in vivo
Text: (§1) The remaining 5 rats per group in the control and high dose groups were then allowed a 14-day recovery period following treatment. Parameters evaluated included mortality (twice daily) clinical signs, food consumption (weekly), body weights (weekly), ophthalmoscopy (pre-dosing and prior to necropsy), hematology and clinical chemistry (Week 4), gross pathology, organ weights, and histopathology for all tissues in all dose groups. […] Ophthalmological examinations were unremarkable. […] Secondary changes included increased spleen weights and changes in other male reproductive organs. An increase in adrenal weights may have been related to a stress response. Macroscopic changes at necropsy included small testes (middle and high dose) and lesions apparent at the injection sites in some animals at all dose levels.
(§2) At recovery, only effects in male reproductive organs were evident at the highest dose, with skin lesions still evident in some animals at the highest dose. […] Cmax and AUC were generally higher at the end of the study compared to day 1. No gender differences were apparent.

[1] = as above; assay type: in vivo, Sprague Dawley rats; conditions: Sprague Dawley, rat, plasma, subcutaneous; day 27; lowest dose of 1.81 mg/kg/day
Text: as §1, §2

[2] = Subcutaneous and intravenous pharmacokinetics in healthy and irradiated Rhesus Macaques; assay type: in vivo
Experimental: We performed a cross-over comparison of subcutaneous and intravenous pharmacokinetics of Rx100.L-Lysine in six healthy Rhesus Macaques and subcutaneous pharmacokinetic and Pharmacodynamics of Rx100.L-Lysine after a single irradiation in six Rhesus Macaques.
Rhesus macaques (male, 3-5 kg) were administered vehicle control article (10 mM Histidine in sterile water for Injection, USP) or Rx100.Lysine salt as a single injection via subcutaneous injection or as an intravenous bolus as indicated in Table 32.
Blood was collected at baseline (7-10 days prior to dose administration), pre-dose (within 30 minutes), 0.5, 1, 2, 4, 6, 8, 24, 48, 72, 96, and 120 hours after dosing for phases 1 and 2. The phase 3 (post-irradiation phase) blood was collected at baseline (7-10 days prior to dose administration), pre-dose (within 30 minutes), 0.5, 1, 2, 4, 6, 8, 24, 48, 72, and 96 hours after dosing. The dose in phase 3 was administered approximately 24 hours after exposure to 11.5 Gy Partial Body Irradiation. Samples, approximately 1.0 mL, were collected and maintained on wet ice in vials containing Di-Potassium EDTA until centrifugation. Samples were stored in a freezer set to maintain −70° C. to −90° C. until shipped on dry ice for analysis.
Analysis was performed using qualified and validated Phoenix® WinNonlin® Software and RxBio™ SOP PRE-0030™, Phoenix® WinNonlin® Software for Statistical Analysis. The final data provided was imported into Phoenix® WinNonlin®. All data presented were generated using the validated Phoenix® WinNonlin® Software. Concentrations reported as BLOQ were treated as missing values for the purpose of this analysis. A non-compartmental pharmacokinetic analysis was performed for each subject separately for IV, SC, and SC+IR. The automatic terminal slope selector function was used along with nominal dose (1 mg/kg) with a dosing interval set at 120 hours since this was a single dose study. The terminal slope was selected from the last 3 quantifiable plasma concentrations for each subject (48-96 hours for the Phase 3 Irradiated subjects and 72-120 for all healthy subjects). Selected pharmacokinetic estimations are presented in Table 33, time of maximum concentration (Tmax (h)), maximum concentration observed (Cmax (ng/mL)), exposure or area under the concentration vs time curve (AUC (h*ng/mL)), volume of distribution (Vz_F ([…])), clearance (CL_F (mL/h/kg), and half-life (T½ or HL_Lambda_z (h)).

[3] = SC 1 mg/kg about 24 h after 11.5 Gy, Average of 6 animals
[4] = SC 1 mg/kg, healthy, Average of 6 animals
[5] = male, rhesus monkey, plasma, iv, 1 mg/kg, IV 1 mg/kg, healthy, Average of 6 animals
[6] = male, rhesus monkey, plasma, iv, 1 mg/kg, IV 1 mg/kg, healthy, individual animals (ID in c1)
[7] = male, rhesus monkey, plasma, sc, 1 mg/kg, SC 1 mg/kg about 24 h after 11.5 Gy, Average of 6 animals
[8] = male, rhesus monkey, plasma, sc, 1 mg/kg, SC 1 mg/kg, healthy, Average of 6 animals

## CCCCCCCC/C=C\CCCCCCCCOP(O)(O)=S [Rx100.L-Lysine, (Z)—O-octadec-9-en-1-yl O,O-dihydrogen phosphorothioate]
Sprague Dawley rats; 28 days SC, 1.81, 6.33 and 18.1 (later 12.7) mg/kg/day
  mortality: All animals survived the treatment period except for one high dose female
Sprague Dawley rats; 28 days SC, dose relationship to incidence and severity
  injection site lesions: discoloration, scabbing, and swelling was observed in all treatment groups
Sprague Dawley rats; at >6.33 mg/kg
  clinical chemistry changes: mildly lower albumin concentration and A/G ratio, higher globulin concentration and moderately higher triglycerides
Sprague Dawley rats; both genders
  liver weights: dose related increased liver weights in the middle and high dose groups
Sprague Dawley rats; high dose
  body weight gains: reduced
Sprague Dawley rats; males
  NOAEL: could not be clearly established
  testicular weights: dose related decreased testicular weights in all groups of males
Sprague Dawley rats; middle and high dose levels
  hematology, red cell changes: lower red cell parameters and higher reticulocyte counts
Sprague Dawley rats; rat, in vivo
  coagulation studies: lower APPT in the females at the high dose and higher fibrinogen levels at all doses
  hematology, white cell parameters and platelets: increased leukocyte, neutrophil, eosinophil and basophil counts and increased platelets
  histopathology, injection sites: chronic mixed cell inflammation at all doses
  histopathology, liver: dose related increased hepatocyte vacuolation at all doses
  histopathology, testes: degeneration and necrosis of the seminiferous tubules in all animals at the middle and high dose and in one animal at the low dose
  ophthalmological examinations: unremarkable
  toxicokinetics, plasma concentrations: dose related increases in plasma concentrations
Sprague Dawley rats; some animals at 18.1/12.7 mg/kg
  liver enzymes: elevated liver enzymes
[1]
  AUC at 27 day: 5040 ng·h/mL
[2]; IV 1 mg/kg, healthy, Average of 6 animals
  λz: 0.049 ± 0.020 h⁻¹
[2]; [3]
  CL: 20 ± 7 mL/h/kg
  Vd: 251 ± 91 mL/kg
  λz: 0.079 ± 0.006 h⁻¹
[2]; [4]
  Vd: 260 ± 83 mL/kg
  λz: 0.066 ± 0.004 h⁻¹
[2]; SC post IR
  F: 0.89±0.2
[2]; SC post IR, 1 mg/kg
  clearance (CL): 20 ± 7 mL/h/kg
  volume of distribution (Vd): 251 ± 91 mL/kg
[2]; SC, healthy, versus IV
  fraction absorbed after subcutaneous administration (F): 1.0±0.18
[2]; SC, healthy, single dose 1 mg/kg
  volume of distribution (Vd): 260 ± 83 mL/kg
[2]; [5]
  AUC: 63200 ± 15100 ng·h/mL
  Cmax: 18600 ± 1760 ng/mL
[2]; male, rhesus monkey, plasma, iv, 1 mg/kg, IV 1 mg/kg, healthy, Average of 6 animals, read-out: AUCINF
  AUC(0-inf): 63200 ± 15100 ng·h/mL
[2]; male, rhesus monkey, plasma, iv, 1 mg/kg, IV 1 mg/kg, healthy, Average of 6 animals, read-out: CL (converted)
  clearance: 0.283 mL/min/kg
[2]; male, rhesus monkey, plasma, iv, 1 mg/kg, IV 1 mg/kg, healthy, Average of 6 animals, read-out: T1/2 (converted)
  half-life: 984 ± 437 min
[2]; male, rhesus monkey, plasma, iv, 1 mg/kg, IV 1 mg/kg, healthy, Average of 6 animals, read-out: Vd
  Vd: 428 ± 290 mL/kg
[2]; [6]
  AUC: 73500 ng·h/mL
  Cmax: 15900 ng/mL
[2]; male, rhesus monkey, plasma, iv, 1 mg/kg, IV 1 mg/kg, healthy, individual animals (ID in c1), read-out: AUCINF
  AUC(0-inf): 73500 ng·h/mL
[2]; male, rhesus monkey, plasma, iv, 1 mg/kg, IV 1 mg/kg, healthy, individual animals (ID in c1), read-out: CL (converted)
  clearance: 0.233 mL/min/kg
[2]; male, rhesus monkey, plasma, iv, 1 mg/kg, IV, healthy, 1 mg/kg, read-out: clearance (CL) (converted)
  clearance: 0.283 mL/min/kg
[2]; male, rhesus monkey, plasma, iv, 1 mg/kg, IV, healthy, 1 mg/kg, read-out: exposure (AUCINF)
  AUC(0-inf): 63200 ± 15100 ng·h/mL
[2]; male, rhesus monkey, plasma, iv, 1 mg/kg, IV, healthy, 1 mg/kg, read-out: half-life (converted)
  half-life: 984 ± 437 min
[2]; male, rhesus monkey, plasma, iv, 1 mg/kg, IV, healthy, 1 mg/kg, read-out: volume of distribution (Vd)
  Vd: 428 ± 290 mL/kg
[2]; male, rhesus monkey, plasma, iv, 1 mg/kg, IV, healthy, read-out: half-life, range of individual subjects
  half-life: 562 to 1730 min
[2]; male, rhesus monkey, plasma, iv, 1 mg/kg, intravenous bolus, healthy
  Cmax: 18600 ± 1760 ng/mL
[2]; [7]
  AUC: 57300 ± 24200 ng·h/mL
  Cmax: 3110 ± 887 ng/mL
  Tmax: 4 ± 2 h
[2]; male, rhesus monkey, plasma, sc, 1 mg/kg, SC 1 mg/kg about 24 h after 11.5 Gy, Average of 6 animals, read-out: AUCINF
  AUC(0-inf): 57300 ± 24200 ng·h/mL
[2]; male, rhesus monkey, plasma, sc, 1 mg/kg, SC 1 mg/kg about 24 h after 11.5 Gy, Average of 6 animals, read-out: T1/2 (converted)
  half-life: 526 ± 37.3 min
[2]; male, rhesus monkey, plasma, sc, 1 mg/kg, SC 1 mg/kg about 24 h after 11.5 Gy, individual animals (ID in c1), read-out: T1/2 (converted)
  half-life: 553 min
[2]; [8]
  AUC: 63700 ± 21400 ng·h/mL
  Cmax: 3130 ± 637 ng/mL
  Tmax: 4 ± 2 h
[2]; male, rhesus monkey, plasma, sc, 1 mg/kg, SC 1 mg/kg, healthy, Average of 6 animals, read-out: AUCINF
  AUC(0-inf): 63700 ± 21400 ng·h/mL
[2]; male, rhesus monkey, plasma, sc, 1 mg/kg, SC 1 mg/kg, healthy, Average of 6 animals, read-out: T1/2 (converted)
  half-life: 630 ± 36 min
[2]; male, rhesus monkey, plasma, sc, 1 mg/kg, SC 1 mg/kg, healthy, individual animals (ID in c1)
  Cmax: 2390 ng/mL
[2]; male, rhesus monkey, plasma, sc, 1 mg/kg, SC 1 mg/kg, healthy, individual animals (ID in c1), read-out: T1/2 (converted)
  half-life: 636 min
[2]; male, rhesus monkey, plasma, sc, 1 mg/kg, SC post IR
  Cmax: 3110 ± 887 ng/mL
[2]; male, rhesus monkey, plasma, sc, 1 mg/kg, SC post IR (~24 hours after 11.5 Gy Partial Body Irradiation), 1 mg/kg
  Tmax: 4 ± 2 h
[2]; male, rhesus monkey, plasma, sc, 1 mg/kg, SC post IR, 1 mg/kg, read-out: exposure (AUCINF)
  AUC(0-inf): 57300 ± 24200 ng·h/mL
[2]; male, rhesus monkey, plasma, sc, 1 mg/kg, SC post IR, 1 mg/kg, read-out: half-life (converted)
  half-life: 526 ± 37.3 min
[2]; male, rhesus monkey, plasma, sc, 1 mg/kg, SC, healthy, read-out: T½, range of individual subjects
  half-life: 580 to 642 min
[2]; male, rhesus monkey, plasma, sc, 1 mg/kg, SC, healthy, single dose 1 mg/kg, read-out: exposure (AUCINF)
  AUC(0-inf): 63700 ± 21400 ng·h/mL
[2]; male, rhesus monkey, plasma, sc, 1 mg/kg, SC, healthy, single dose 1 mg/kg, read-out: half-life (converted)
  half-life: 630 ± 36 min
[2]; male, rhesus monkey, plasma, sc, 1 mg/kg, SC, irradiated animals, read-out: half-life, range of individual subjects
  half-life: 473 to 580 min
[2]; male, rhesus monkey, plasma, sc, 1 mg/kg, healthy, single dose 1 mg/kg
  Cmax: 3130 ± 637 ng/mL
[2]; male, rhesus monkey, plasma, sc, 1 mg/kg, healthy, single dose 1 mg/kg, mean ± SD
  Tmax: 4 ± 2 h
